Read-outs that look alike come from different tables or passages of the source.
Legend:
vaccinia virus (VACV) = assay: microbe, parasite or virus in culture; type: cell-based; details: for IC50: Orthopoxvirus vaccinia
[1] = system: recombinant VACV (vL1Ri) EGFP under synthetic early/late promoter; type: cell-based, vaccinia virus
[2] = system: E9/A20/D4 dependent in vitro DNA synthesis; details: cited from earlier work
E3 protein = type: cell-based, vaccinia virus
[3] = system: VACV viral factories in BSC-1 cells; type: cell-based, vaccinia virus
A4 protein = type: cell-based, vaccinia virus

SMILES: COc1cccc2[nH]c(C(=O)O)c(Sc3ccc(Cl)cc3)c12 [Compound 1i]
- antiviral activity (in words) (vaccinia virus (VACV)): loss of activity

SMILES: Cc1ccc2c(Sc3ccc(C(F)(F)F)cc3[N+](=O)[O-])c(C(=O)O)[nH]c2c1 [Compound 31]
- antiviral activity (in words) (vaccinia virus (VACV)): loss of activity

SMILES: Cc1ccc2c(Sc3cc(Cl)cc(Cl)c3)c(CCC(=O)O)[nH]c2c1 [Compound 24d, 3-(3-((3,5-Dichlorophenyl)thio)-6-methyl-1H-indol-2-yl)propanoic acid]
- fold decrease in antiviral potency (vaccinia virus (VACV)): ~ 5 fold

SMILES: Nc1ccn(C[C@@H](CO)OCP(=O)(O)O)c(=O)n1.O.O [CDV, cidofovir, reference compound]
- EGFP expression [1]: equally effective
- EGFP expression, treatment post vL1Ri adsorption [1]: comparable EGFP expression and CPE to DMSO vehicle

SMILES: Cc1ccc2c(Sc3cccc(F)c3)c(C(=O)O)[nH]c2c1 [Compound 18b]
- IC50 (vaccinia virus (VACV); read-out: IC50 (antiviral activity, Table 2)): 56 µM

SMILES: Cc1ccc2c(Sc3ccc(Br)cc3)c(C(=O)O)[nH]c2c1 [Compound 18c]
- antiviral activity (in words) (vaccinia virus (VACV)): loss of activity

SMILES: COc1ccc(Sc2c(C(=O)O)[nH]c3cc(C)ccc23)cc1 [Compound 18e]
- antiviral activity (in words) (vaccinia virus (VACV)): failed to show antiviral activities

SMILES: Cc1ccc(Sc2c(C(=O)O)[nH]c3cc(C)ccc23)cc1 [Compound 18d]
- antiviral activity (in words) (vaccinia virus (VACV)): failed to show antiviral activities

SMILES: Cc1ccc2c(Sc3cc(Cl)c(Cl)cc3Cl)c(C(=O)O)[nH]c2c1 [Compound 30]
- IC50 (vaccinia virus (VACV); read-out: IC50 (antiviral activity, Table 3)): 21 µM

SMILES: COC(=O)c1[nH]c2c(C)cccc2c1Sc1ccc(Cl)cc1 [Compound 8]
- fold improvement in antiviral potency over parent 1 (vaccinia virus (VACV)): ~ 4 fold

SMILES: COC(=O)c1[nH]c2cccc(C)c2c1Sc1ccc(Cl)cc1 [Compound 9]
- fold improvement in antiviral potency over parent 1 (vaccinia virus (VACV)): ~ 4 fold

SMILES: Cc1ccc(Sc2c(C(=O)O)[nH]c3cccc(C)c23)cc1 [Compound 19a]
- antiviral activity (in words) (vaccinia virus (VACV)): failed to show antiviral activities

SMILES: CCCCCCNC(=O)CCc1[nH]c2cc(C)ccc2c1Sc1cc(Cl)cc(Cl)c1 [Compound 24e, 3-(3-((3,5-Dichlorophenyl)thio)-6-methyl-1H-indol-2-yl)-N-hexylpropanamide]
- antiviral activity (in words) (vaccinia virus (VACV)): loss of activity

SMILES: COC(=O)c1[nH]c2ccc(C)cc2c1Sc1ccc(Cl)cc1 [Compound 7]
- antiviral activity (in words) (vaccinia virus (VACV)): lost activity

SMILES: Cc1cccc2[nH]c(C(=O)O)c(Sc3ccc([N+](=O)[O-])cc3)c12 [Compound 19c]
- antiviral activity (in words) (vaccinia virus (VACV)): loss of activity

SMILES: CCn1c(C(=O)O)c(Sc2ccc(Cl)cc2)c2cc(C)ccc21 [Compound 3]
- antiviral activity (in words) (vaccinia virus (VACV)): no gain in activities

SMILES: Cc1ccc2c(Sc3ccccc3)c(C(=O)O)[nH]c2c1 [Compound 18]
- antiviral activity (in words) (vaccinia virus (VACV)): abolished its antiviral activity

SMILES: CNC(=O)c1[nH]c2cc(C)ccc2c1Sc1cc(Cl)cc(Cl)c1 [Compound 28]
- antiviral activity (in words) (vaccinia virus (VACV)): loss of activity

SMILES: Cc1ccc2c(Sc3ccc(Cl)cc3)c(C(=O)O)[nH]c2c1 [Compound 1, 3-((4-Chlorophenyl)thio)-6-methyl-1H-indole-2-carboxylic acid]
- inhibition of in vitro DNA synthesis [2]: ability to inhibit in vitro DNA synthesis

SMILES: COC(=O)c1ccc(Sc2c(C(=O)O)[nH]c3cccc(C)c23)cc1 [Compound 19b]
- antiviral activity (in words) (vaccinia virus (VACV)): failed to show antiviral activities

SMILES: COc1ccc(Sc2c(C(=O)O)[nH]c3cccc(C)c23)cc1 [Compound 19]
- antiviral activity (in words) (vaccinia virus (VACV)): failed to show antiviral activities

SMILES: COC(=O)c1[nH]c2cc(C)ccc2c1Sc1cc(Cl)cc(Cl)c1 [Compound 27]
- antiviral activity (in words) (vaccinia virus (VACV)): loss of activity

SMILES: O=C(O)c1[nH]c2ccccc2c1Sc1ccc(Cl)cc1 [Compound 1d]
- antiviral activity (in words) (vaccinia virus (VACV)): loss of activity

SMILES: Cc1ccc2c(Sc3ccc(C(=O)O)cc3)c(C(=O)O)[nH]c2c1 [Compound 18f]
- antiviral activity (in words) (vaccinia virus (VACV)): loss of activity

SMILES: Cc1ccc2c(c1)c(Sc1ccc(Cl)cc1)c(C(=O)O)n2C [Compound 2]
- antiviral activity (in words) (vaccinia virus (VACV)): loss

SMILES: Cc1ccc2c(Sc3cc(Cl)cc(Cl)c3)c(CCCC(N)=O)[nH]c2c1 [Compound 24c, 4-(3-((3,5-Dichlorophenyl)thio)-6-methyl-1H-indol-2-yl)butanamide]
- fold decrease in antiviral potency (vaccinia virus (VACV)): ~ 5 fold

SMILES: Cc1ccc2c(Sc3cc(Cl)cc(Cl)c3)c(CCC(N)=O)[nH]c2c1 [Compound 24a, 3-(3-((3,5-Dichlorophenyl)thio)-6-methyl-1H-indol-2-yl)propanamide]
- EGFP expression [1]: significantly reduced
- EGFP expression, treatment post vL1Ri adsorption [1]: appreciable EGFP expression
- cytopathic effect (CPE) [1]: lowered
- E3 early protein level (E3 protein): slight decrease
- BrdU labeling of viral factories [3]: significantly suppressed
- A4 late protein level (A4 protein): dramatically reduced in a dose-dependent manner

SMILES: COC(=O)c1[nH]c2cc(C)ccc2c1Sc1ccc(Cl)cc1 [Compound 6]
- fold improvement in antiviral potency over parent 1 (vaccinia virus (VACV)): ~ 4 fold

— article PMC10306345 (Journal of medicinal chemistry, 2013)
